Experiment [1] concerns the target T1, Sphingosine 1-phosphate receptor 4 (Homo sapiens, UniProt O95977).
T1 sequence (O95977 whole entry): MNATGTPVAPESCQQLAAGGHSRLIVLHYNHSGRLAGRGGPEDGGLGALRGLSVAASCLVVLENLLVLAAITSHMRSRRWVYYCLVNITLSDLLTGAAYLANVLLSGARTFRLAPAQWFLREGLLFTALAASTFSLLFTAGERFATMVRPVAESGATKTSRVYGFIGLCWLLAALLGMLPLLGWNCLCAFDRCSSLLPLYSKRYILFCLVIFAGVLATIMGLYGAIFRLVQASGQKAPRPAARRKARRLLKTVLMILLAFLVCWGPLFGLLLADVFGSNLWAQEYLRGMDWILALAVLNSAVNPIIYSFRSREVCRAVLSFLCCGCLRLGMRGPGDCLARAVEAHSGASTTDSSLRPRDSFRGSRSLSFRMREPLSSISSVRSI
Nature of the experiment: Fluorescence dose response cell-based high throughput screening assay for antagonists of the Sphingosine 1-Phosphate Receptor 4 (S1P4). [Related pubchem assays: 1524 (Confirmation in triplicates.), 1510 (Primary screen.)]. The format is functional.

A short description of experiment [2]: cells. The format is functional.
Experiment [3] is described as follows: loss of viability in HepG2 cells – cell-based, CellTiter-Glo, cherry-picked, cytotoxicity control for Shn3 inhibitor project, dose response (AID 624134). Type of experiment: functional. Background: ATP-based viability assays read luminescence as a measure of living cells.
Experiment [4] addresses Heat shock protein HSP 90-alpha (Homo sapiens, UniProt P07900). Nature of the experiment: Luminescence-based dose response biochemical high throughput screening assay for inhibitors of the Heat Shock Protein 90 (HSP90). [Related pubchem assays: 1831 (Summary AID.), 1846 (Confirmation screen.), 1789 (Primary screen.)].
The target of experiment [5] is T2, Hexokinase HKDC1 (Homo sapiens, UniProt Q2TB90).
T2 sequence (Q2TB90 whole entry): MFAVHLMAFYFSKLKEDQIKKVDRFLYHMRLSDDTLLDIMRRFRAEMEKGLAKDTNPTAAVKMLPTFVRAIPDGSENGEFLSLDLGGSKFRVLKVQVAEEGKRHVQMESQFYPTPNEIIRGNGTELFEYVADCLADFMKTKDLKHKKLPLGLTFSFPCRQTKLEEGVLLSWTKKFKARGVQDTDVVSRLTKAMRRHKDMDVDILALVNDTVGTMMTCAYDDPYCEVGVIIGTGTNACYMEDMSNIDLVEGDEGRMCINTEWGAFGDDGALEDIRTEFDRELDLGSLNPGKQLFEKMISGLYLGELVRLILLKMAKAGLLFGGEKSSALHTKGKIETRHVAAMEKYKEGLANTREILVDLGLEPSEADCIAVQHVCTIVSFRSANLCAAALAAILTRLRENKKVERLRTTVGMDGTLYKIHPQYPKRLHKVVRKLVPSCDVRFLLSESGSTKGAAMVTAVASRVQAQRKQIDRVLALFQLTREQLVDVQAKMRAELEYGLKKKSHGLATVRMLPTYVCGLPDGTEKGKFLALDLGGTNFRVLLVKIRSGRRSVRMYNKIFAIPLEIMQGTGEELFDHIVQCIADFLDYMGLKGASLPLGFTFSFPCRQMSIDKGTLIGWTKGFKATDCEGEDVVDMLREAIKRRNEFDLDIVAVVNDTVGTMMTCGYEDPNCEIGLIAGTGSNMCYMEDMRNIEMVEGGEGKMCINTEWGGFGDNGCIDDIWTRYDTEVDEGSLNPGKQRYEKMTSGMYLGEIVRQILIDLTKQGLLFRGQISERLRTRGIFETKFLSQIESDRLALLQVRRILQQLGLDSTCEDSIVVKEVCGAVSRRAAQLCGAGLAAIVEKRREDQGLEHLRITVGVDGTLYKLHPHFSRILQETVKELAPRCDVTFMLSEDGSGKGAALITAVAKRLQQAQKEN
Nature of the experiment: inhibition of HKDC1 glucose phosphorylation – biochemical, W721R variant, dose response (AID 504729). Type of experiment: functional.

Experiment [6] concerns the target T3, Apoptotic protease-activating factor 1 (Homo sapiens, UniProt O14727).
T3 sequence (O14727 whole entry): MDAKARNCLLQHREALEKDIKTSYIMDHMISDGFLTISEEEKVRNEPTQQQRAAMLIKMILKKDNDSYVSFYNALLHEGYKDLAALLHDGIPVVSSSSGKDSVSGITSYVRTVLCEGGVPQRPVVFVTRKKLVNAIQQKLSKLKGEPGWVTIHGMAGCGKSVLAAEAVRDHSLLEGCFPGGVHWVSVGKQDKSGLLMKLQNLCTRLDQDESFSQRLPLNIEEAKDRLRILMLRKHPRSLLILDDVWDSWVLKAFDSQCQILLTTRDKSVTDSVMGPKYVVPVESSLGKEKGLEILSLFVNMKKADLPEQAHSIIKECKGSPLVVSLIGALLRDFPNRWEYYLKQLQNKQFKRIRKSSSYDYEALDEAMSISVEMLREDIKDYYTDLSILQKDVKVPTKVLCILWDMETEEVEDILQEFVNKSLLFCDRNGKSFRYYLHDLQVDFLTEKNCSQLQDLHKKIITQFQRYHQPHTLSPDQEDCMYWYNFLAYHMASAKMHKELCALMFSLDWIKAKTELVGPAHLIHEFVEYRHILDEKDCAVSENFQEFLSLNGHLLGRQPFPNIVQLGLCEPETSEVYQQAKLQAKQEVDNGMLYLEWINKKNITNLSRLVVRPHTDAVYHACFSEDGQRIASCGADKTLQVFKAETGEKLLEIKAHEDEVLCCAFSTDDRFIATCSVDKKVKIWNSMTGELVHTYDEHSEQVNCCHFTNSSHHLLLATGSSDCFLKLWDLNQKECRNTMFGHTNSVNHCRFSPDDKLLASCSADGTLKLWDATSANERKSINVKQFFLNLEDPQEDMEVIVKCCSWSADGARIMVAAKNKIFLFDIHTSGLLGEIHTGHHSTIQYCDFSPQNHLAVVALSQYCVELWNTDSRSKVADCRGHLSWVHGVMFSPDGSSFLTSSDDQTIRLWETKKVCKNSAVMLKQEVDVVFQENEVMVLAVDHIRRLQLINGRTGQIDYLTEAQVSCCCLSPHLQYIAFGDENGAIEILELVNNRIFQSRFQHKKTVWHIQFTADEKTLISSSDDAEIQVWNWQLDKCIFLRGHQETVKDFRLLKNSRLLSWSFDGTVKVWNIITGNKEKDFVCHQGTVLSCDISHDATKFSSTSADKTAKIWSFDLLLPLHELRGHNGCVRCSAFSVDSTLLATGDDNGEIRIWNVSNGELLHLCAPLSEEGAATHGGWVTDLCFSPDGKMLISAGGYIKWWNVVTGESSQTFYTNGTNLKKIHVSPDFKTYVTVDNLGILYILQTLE
Type of experiment: functional.

In experiment [7] the test system is BJ. Nature of the experiment: BJ-TERT fibroblast viability loss – cell-based, RAS-independent, luminescence, dose response (AID 1933). The format is functional. The conditions noted are these: Homo sapiens.
Experiment [8] concerns BJ. The experiment is described as follows: BJ-TERT-LT-ST fibroblast viability loss – cell-based, RAS-independent, luminescence, dose response (AID 1935).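 Further: BJ fibroblasts immortalized with TERT plus LT and ST oncogenes.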 The format is functional. The conditions noted are these: Homo sapiens.
Experiment [9] in a line: DRD fibroblast viability loss – cell-based, non-viral oncogenic, luminescence, dose response (AID 1934). The conditions noted are these: Homo sapiens. The format is functional.

Drawing on ChEMBL document CHEMBL1201862, “PubChem BioAssay data set” (2004), this text covers IC50, AC50 and EC50 for three compounds.

Calls of active or inactive are those of the source.

What is called IC50 is the concentration needed to halve the response being measured. The AC50 is the concentration giving half of the maximal activity seen. Take `Oc1c(C(c2ccccc2Cl)N2CCCC2)ccc2cccnc12` (centres undefined): the half-maximal inhibitory concentration (IC50) in experiment [1] is 2.25 µM (active); in experiment [2], 13.2 µM (active). Further, the concentration at half-maximal activity (AC50) in experiment [3] was 46.9 µM (active).

As for `CCc1ccc(S(=O)(=O)/N=C2\C=C(Nc3ccc(C(=O)O)cc3)C(=O)c3ccccc32)cc1`, the IC50 in experiment [4] is 966 nM (active); in [5], 6.5 µM (active); in experiment [6], 9.6 µM (active).

Usually EC50 stands for the concentration needed to bring the measured effect to its halfway point. With `COc1cccc(/C=N/Nc2ccc([N+](=O)[O-])cn2)c1O`, the half-maximal effective concentration (EC50) is 3.31 µM (inconclusive) in experiment [7], 4.96 µM (inconclusive) in experiment [8] and 3.96 µM (active) in experiment [9].
